How the values were obtained:
[1] = molecular target: T1, recombinant IDO1 (holo-IDO1; apo-IDO1) (Homo sapiens, UniProt P14902); experiment: fluorescence polarization competition against GSK1051; format: binding
[2] = molecular target: T1, recombinant IDO1 (holo-IDO1; apo-IDO1); experiment: intrinsic TRP fluorescence quenching, equilibrium titration; format: binding
[3] = molecular target: T1, recombinant IDO1 (holo-IDO1; apo-IDO1); experiment: NFK formation from D-TRP, Morrison tight binding fit; format: biochemical

T1 sequence (P14902 whole entry): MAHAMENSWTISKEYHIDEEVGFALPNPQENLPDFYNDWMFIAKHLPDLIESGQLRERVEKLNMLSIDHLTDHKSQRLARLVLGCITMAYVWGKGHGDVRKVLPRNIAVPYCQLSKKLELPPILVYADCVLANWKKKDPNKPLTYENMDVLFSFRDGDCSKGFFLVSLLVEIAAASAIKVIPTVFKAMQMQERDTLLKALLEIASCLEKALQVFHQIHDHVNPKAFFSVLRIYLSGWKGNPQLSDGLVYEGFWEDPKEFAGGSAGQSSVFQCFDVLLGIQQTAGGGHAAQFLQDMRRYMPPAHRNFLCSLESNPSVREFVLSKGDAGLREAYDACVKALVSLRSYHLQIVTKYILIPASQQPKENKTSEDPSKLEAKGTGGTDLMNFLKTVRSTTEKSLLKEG

| IC50 [1] | Kd [2] | Ki [3] | SMILES |
| --- | --- | --- | --- |
| 4.4 nM |  |  | C=CC1=C(C)C2=Cc3c(C=C)c(C)c4[n]3[Fe+][n]3c(c(C)c(CCC(=O)O)c3=CC3=NC(=C4)C(C)=C3CCC(=O)O)=CC1=N2 [heme] |
|  | 2.1 nM | 10 nM | CC(C)CN(CC(C)C)c1ccc([C@H](C)CC(=O)O)cc1Nc1nc(C(F)(F)F)ns1 [GSK5628] |
